According to paper PMC6675780, “Monitoring activities of receptor tyrosine kinases using a universal adapter in genetically encoded split TEV assays” (Cellular and Molecular Life Sciences: CMLS, 2019):
Where two headings read alike, the source gives them in different places.

What was measured:
ERBB4 [1] = settings: Biochemical, AID 1204629; cited from earlier work
EGFR [2] = settings: Western blotting, cellular lysates, AID 770081; cited from earlier work
ERBB3 = settings: Biochemical, AID 1204629; cited from earlier work
ERBB2 = settings: Biochemical, AID 1204629; cited from earlier work
EGFR [3] = settings: Biochemical, AID 1204628; cited from earlier work
ERBB4 [4] = biological target: ERBB4 (Homo sapiens, UniProt Q15303); test: Split TEV recruitment assay, ERBB4-NTEV-tcs-GV in PC12 cells; settings: for Antagonistic effect on ERBB4 activity: SH2(GRB2)-CTEV adapter, PC12 cells, constant EGFld
Description: Split TEV recruitment assays were run in six replicates per condition in 96-well plates. 50,000 PC12 cells per well were seeded onto poly-L-lysine (PLL)-coated plates. The next day, cells were transfected with assay plasmids using Lipofectamine 2000. For transfection-based assays, no antibiotics were added to the medium. Per 96-well, a receptor-NTEV-tcs-GV fusion plasmid (10 ng), an adapter-CTEV fusion plasmid for either SHC1 (10 ng), SH2(SHC1) (10 ng), SH2(GRB2) (10 ng), SH2(mix) (10 ng), PIK3R1(50 ng), SH2(PIK3R1) (50 ng), or GRB2 (2.5 ng), and an Fluc reporter plasmid (10 ng, Fluc driven by 10x clustered upstream activating sequences coupled to a minimal CMV promoter, 10 × UAS-minCMVp) were used. Additionally, 1 ng of a plasmid constitutively expressing an EYFP that is fused to nuclear localisation sequence (EYFPnuc) driven by a CMV promoter was transfected per 96-well to assess transfection efficiencies (EYFPnuc). In detail, assay plasmids were diluted in 30 µl Opti-MEM (Thermo Fisher Scientific), vortexed, and mixed with 0.2 µl Lipofectamine 2000 per well. The DNA/Lipofectamine/Opti-MEM mix was incubated for 20 min. The medium was removed from the wells and the DNA/Lipofectamine/Opti-MEM mix was added onto the cells. After 2 h of incubation, the maintenance medium without antibiotics was added to the Opti-MEM mix. On day 2, the maintenance medium was replaced by starvation medium. […] 16 h later (day 4), the medium was removed, and cells were lysed using Passive Lysis Buffer (Promega) and luciferase activity was analysed using a dual luciferase assay (Promega) in a Mithras LB 940 Multimode Microplate Reader (Berthold Technologies). […] Error bars are calculated as standard error of the mean (SEM).
(§1) For split TEV recruitment assays in a dose–response format, the following amendments to the general protocol were made. […] Error bars are calculated as standard error of the mean (SEM).

EGFR [5] = biological target: EGFR (Homo sapiens, UniProt P00533); test: Split TEV recruitment assay, EGFR-NTEV-tcs-GV in PC12 cells; settings: SH2(GRB2)-CTEV adapter, constant EGF
Description: (§2) Split TEV recruitment assays were run in six replicates per condition in 96-well plates. 50,000 PC12 cells per well were seeded onto poly-L-lysine (PLL)-coated plates. The next day, cells were transfected with assay plasmids using Lipofectamine 2000. For transfection-based assays, no antibiotics were added to the medium. Per 96-well, a receptor-NTEV-tcs-GV fusion plasmid (10 ng), an adapter-CTEV fusion plasmid for either SHC1 (10 ng), SH2(SHC1) (10 ng), SH2(GRB2) (10 ng), SH2(mix) (10 ng), PIK3R1(50 ng), SH2(PIK3R1) (50 ng), or GRB2 (2.5 ng), and an Fluc reporter plasmid (10 ng, Fluc driven by 10x clustered upstream activating sequences coupled to a minimal CMV promoter, 10 × UAS-minCMVp) were used. […] 16 h later (day 4), the medium was removed, and cells were lysed using Passive Lysis Buffer (Promega) and luciferase activity was analysed using a dual luciferase assay (Promega) in a Mithras LB 940 Multimode Microplate Reader (Berthold Technologies). […] Error bars are calculated as standard error of the mean (SEM).
as §1

ERBB2/ERBB3 = ERBB2/ERBB3 (Homo sapiens, UniProt P04626+P21860); test: Split TEV recruitment assay, ERBB3-NTEV-tcs-GV with co-transfected ERBB2 in PC12 cells; settings: SH2(GRB2)-CTEV adapter, constant EGFld
Description: as §2, §1

PC12 cells = test: Constitutive Renilla luciferase readout to assess toxic effects; assay type: cell-based; settings: split TEV dose-response assays
Description: For split TEV recruitment assays in a dose–response format, the following amendments to the general protocol were made. For a dose–response assay, all cells on the plate were transfected with the same receptor-NTEV-tcs-GV and adapter-CTEV fusions, the Fluc reporter plasmid, 1 ng of a plasmid constitutively expressing Renilla luciferase driven by a thymidine kinase promoter, and the EYFPnuc expressing plasmid. Renilla luciferase was used to assess toxic effects when applying compounds. For dose-dependent stimulation testing activation, six wells per condition were stimulated using increasing concentrations of an agonist at a semi-logarithmic scale. For assays testing inhibition, cells were treated with increasing concentrations of an antagonist at a semi-logarithmic scale, followed 1 h later by the addition of an agonist at a constant concentration. […] Dose–response data were analysed using the R-based ‘drc’ package, as described before. Error bars are calculated as standard error of the mean (SEM). For ease of presentation and intuition, we have transformed conventionally used IC50 values into pIC50 values. These are calculated from IC50 values using the formula pIC50 = − log10(IC50), with units of molar for IC50 and therefore log(molar) for pIC50.

IGF1R = IGF1R (Homo sapiens, UniProt P08069); test: Split TEV recruitment assay, IGF1R-NTEV-tcs-GV in PC12 cells; settings: SH2(GRB2)-CTEV adapter, constant IGF1 stimulus
Description: as §2, §1

MET = MET (Homo sapiens, UniProt P08581); test: Split TEV recruitment assay, MET-NTEV-tcs-GV in PC12 cells; settings: SH2(GRB2)-CTEV adapter, constant HGF stimulus
Description: as §2, §1

ERBB4 [6] = test system: ERBB4; set-up: method as in PMID 28743784; settings: split TEV dimerisation assay; cited from earlier work

ERBB4 (Homo sapiens, UniProt Q15303), sequence (Q15303 26-1308): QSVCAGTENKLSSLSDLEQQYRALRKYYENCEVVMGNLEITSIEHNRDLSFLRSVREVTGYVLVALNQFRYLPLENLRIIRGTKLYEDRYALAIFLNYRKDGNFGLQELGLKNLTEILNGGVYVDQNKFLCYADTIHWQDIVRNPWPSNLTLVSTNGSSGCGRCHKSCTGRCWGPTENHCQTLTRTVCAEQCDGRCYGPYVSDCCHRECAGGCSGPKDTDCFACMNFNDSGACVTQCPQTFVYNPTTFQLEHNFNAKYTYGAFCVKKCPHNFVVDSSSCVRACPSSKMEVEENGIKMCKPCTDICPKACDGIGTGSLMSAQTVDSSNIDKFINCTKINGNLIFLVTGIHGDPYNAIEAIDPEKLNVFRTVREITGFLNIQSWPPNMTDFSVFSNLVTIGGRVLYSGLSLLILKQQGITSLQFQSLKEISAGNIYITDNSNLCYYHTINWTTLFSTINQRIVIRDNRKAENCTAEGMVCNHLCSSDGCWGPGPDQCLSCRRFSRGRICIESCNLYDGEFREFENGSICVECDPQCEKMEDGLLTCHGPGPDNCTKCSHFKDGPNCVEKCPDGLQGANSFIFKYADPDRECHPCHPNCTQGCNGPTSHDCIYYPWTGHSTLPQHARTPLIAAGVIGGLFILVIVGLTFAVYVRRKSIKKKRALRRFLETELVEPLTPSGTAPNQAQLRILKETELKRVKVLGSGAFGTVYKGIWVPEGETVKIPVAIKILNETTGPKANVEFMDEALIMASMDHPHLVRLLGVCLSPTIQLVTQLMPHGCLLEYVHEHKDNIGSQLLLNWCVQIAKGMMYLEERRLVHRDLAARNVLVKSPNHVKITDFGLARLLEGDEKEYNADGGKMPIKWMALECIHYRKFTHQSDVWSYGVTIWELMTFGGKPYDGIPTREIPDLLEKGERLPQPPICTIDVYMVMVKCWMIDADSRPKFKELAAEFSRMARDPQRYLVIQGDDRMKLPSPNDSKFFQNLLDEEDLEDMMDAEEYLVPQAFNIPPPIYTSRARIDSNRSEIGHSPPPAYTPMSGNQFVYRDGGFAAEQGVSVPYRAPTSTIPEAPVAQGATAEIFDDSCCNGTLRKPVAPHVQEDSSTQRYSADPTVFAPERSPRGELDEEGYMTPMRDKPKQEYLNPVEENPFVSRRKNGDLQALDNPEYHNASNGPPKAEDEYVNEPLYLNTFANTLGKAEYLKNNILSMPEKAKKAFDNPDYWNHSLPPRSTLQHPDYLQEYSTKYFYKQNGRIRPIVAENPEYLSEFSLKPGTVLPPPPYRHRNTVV
ERBB2/ERBB3, sequence (P21860 20-1342): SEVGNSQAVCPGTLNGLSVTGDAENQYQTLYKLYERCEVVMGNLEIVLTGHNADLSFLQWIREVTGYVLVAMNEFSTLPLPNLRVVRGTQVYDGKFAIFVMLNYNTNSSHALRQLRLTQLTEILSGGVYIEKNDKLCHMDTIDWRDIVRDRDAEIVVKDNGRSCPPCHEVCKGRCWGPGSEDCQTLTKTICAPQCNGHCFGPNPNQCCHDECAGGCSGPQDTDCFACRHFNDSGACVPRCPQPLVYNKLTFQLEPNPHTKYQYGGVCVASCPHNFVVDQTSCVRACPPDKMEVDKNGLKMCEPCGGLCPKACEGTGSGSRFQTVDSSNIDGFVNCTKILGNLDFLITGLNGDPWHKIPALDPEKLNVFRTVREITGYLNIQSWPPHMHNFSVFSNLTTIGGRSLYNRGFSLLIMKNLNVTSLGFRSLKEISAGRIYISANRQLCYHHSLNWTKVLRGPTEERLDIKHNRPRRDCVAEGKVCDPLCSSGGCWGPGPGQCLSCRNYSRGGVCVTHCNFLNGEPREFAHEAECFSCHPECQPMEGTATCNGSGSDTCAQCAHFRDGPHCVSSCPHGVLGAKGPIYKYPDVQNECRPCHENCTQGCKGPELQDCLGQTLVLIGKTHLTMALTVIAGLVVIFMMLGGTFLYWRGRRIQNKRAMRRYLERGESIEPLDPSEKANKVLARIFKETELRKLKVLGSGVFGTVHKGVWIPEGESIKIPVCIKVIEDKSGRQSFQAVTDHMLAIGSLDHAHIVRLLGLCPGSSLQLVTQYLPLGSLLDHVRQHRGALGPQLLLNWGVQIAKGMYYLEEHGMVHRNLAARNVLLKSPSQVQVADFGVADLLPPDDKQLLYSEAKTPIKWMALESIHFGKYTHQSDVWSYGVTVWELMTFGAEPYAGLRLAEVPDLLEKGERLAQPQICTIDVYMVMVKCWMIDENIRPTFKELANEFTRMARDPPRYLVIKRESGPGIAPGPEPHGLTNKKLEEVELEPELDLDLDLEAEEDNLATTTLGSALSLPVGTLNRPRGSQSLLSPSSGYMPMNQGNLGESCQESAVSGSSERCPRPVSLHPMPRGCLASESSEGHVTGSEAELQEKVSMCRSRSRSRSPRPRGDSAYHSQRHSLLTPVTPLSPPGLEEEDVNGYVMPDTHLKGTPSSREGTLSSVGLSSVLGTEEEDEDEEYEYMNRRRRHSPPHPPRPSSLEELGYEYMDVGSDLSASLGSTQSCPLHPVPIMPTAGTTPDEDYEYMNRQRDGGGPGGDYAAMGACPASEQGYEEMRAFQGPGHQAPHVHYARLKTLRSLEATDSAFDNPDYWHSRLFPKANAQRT
ERBB2/ERBB3, sequence (P04626 23-1255): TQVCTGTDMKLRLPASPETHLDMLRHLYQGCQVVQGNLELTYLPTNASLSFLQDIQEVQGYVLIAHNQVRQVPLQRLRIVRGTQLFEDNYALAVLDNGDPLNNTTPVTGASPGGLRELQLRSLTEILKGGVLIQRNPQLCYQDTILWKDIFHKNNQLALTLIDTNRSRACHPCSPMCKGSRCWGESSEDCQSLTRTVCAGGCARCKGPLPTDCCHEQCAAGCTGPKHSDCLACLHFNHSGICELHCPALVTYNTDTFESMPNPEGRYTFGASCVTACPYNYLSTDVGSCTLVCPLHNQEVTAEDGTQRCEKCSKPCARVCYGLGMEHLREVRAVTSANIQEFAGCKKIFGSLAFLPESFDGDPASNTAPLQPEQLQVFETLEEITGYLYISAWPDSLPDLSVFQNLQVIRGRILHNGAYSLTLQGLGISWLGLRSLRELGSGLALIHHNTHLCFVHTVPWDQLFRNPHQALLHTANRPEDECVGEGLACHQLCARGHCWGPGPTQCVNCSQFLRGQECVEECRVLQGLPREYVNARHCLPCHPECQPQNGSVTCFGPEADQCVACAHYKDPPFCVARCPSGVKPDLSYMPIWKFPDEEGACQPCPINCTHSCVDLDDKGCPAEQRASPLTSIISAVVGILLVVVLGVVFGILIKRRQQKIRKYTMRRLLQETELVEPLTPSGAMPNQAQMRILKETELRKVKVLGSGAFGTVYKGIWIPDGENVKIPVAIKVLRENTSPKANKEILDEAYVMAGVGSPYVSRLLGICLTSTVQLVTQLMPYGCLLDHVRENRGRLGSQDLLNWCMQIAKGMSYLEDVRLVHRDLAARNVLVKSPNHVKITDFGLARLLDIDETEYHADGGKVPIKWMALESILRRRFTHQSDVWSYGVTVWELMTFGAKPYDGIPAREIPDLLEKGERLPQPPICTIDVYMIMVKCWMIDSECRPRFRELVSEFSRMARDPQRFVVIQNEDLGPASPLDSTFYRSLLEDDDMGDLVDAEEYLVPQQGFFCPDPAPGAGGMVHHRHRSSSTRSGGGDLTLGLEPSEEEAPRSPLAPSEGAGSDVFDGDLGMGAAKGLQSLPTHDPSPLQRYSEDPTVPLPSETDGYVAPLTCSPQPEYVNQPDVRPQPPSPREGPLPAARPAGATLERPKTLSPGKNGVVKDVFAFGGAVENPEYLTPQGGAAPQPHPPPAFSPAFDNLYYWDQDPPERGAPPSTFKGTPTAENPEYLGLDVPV
EGFR (Homo sapiens, UniProt P00533), sequence (P00533 25-1210): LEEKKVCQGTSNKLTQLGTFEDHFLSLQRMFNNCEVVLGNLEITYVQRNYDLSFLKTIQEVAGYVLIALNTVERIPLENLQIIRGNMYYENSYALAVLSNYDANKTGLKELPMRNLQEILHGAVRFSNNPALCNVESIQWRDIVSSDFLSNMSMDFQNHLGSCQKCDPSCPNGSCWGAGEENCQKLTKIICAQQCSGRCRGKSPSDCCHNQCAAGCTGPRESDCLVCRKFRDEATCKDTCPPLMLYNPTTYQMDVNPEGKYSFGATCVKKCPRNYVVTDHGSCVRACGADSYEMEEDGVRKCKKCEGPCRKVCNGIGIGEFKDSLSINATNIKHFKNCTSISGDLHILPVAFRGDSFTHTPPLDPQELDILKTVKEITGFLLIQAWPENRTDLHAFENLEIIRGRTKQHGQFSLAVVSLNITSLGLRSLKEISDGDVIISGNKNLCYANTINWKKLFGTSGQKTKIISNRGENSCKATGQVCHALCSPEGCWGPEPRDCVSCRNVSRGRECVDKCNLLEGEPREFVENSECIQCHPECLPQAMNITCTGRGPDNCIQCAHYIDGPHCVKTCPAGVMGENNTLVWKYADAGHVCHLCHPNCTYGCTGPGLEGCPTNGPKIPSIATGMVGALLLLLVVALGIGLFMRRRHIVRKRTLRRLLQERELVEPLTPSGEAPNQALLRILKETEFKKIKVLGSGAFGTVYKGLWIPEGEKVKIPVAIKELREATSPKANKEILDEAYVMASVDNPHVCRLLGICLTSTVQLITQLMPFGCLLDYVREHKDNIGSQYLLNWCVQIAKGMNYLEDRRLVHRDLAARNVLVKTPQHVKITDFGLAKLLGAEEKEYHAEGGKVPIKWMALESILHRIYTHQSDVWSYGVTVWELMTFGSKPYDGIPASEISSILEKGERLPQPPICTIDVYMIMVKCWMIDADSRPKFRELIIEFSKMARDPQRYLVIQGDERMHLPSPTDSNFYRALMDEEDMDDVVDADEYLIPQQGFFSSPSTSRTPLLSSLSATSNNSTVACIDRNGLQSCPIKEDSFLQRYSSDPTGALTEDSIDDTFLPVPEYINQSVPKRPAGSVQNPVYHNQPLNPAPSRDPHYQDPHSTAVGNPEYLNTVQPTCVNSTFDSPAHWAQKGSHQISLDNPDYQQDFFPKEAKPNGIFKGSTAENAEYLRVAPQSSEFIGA

| Structure (SMILES) | Antagonistic effect on ERBB4 activity (ERBB4 [4]) | Antagonistic effect on EGFR activity (EGFR [5]) | Antagonistic effect on ERBB2/ERBB3 activity (ERBB2/ERBB3) | Concentration at which toxic effects occur (constitutive Renilla luciferase readout) (PC12 cells) [µM] | Inhibition of IGF1R activity (IGF1R) | also measured |
| --- | --- | --- | --- | --- | --- | --- |
| C=CC(=O)Nc1cccc(Oc2nc(Nc3ccc(N4CCN(C)CC4)cc3OC)ncc2Cl)c1 [WZ4002] |  |  |  |  |  | pIC50 (ERBB4 [1]): 9.37; pIC50 (EGFR [2]): 5.93; IC50 (nM)/KD (ERBB3): 0.42 nM; pIC50 (ERBB3): 9.37; IC50 (nM)/KD (ERBB2): 0.42 nM; pIC50 (ERBB2): 9.37; pIC50 (EGFR [3]): 7.79 |
| C[C@]12CCC(=O)C=C1C=C[C@@H]1[C@@H]2CC[C@@]2(C)[C@H]1CC[C@@]21CCC(=O)O1 [canrenone] | did not exhibit any antagonistic effects | did not exhibit any antagonistic effects | did not exhibit any antagonistic effects |  |  |  |
| CS(=O)(=O)CCNCc1ccc(-c2ccc3ncnc(Nc4ccc(OCc5cccc(F)c5)c(Cl)c4)c3c2)o1 [Lapatinib, lapatinib] |  |  |  | 30 | did not inhibit | Inhibition of MET activity (MET): did not inhibit |
| CC(=O)S[C@@H]1CC2=CC(=O)CC[C@]2(C)[C@H]2CC[C@@]3(C)[C@@H](CC[C@@]34CCC(=O)O4)[C@H]12 [Spironolactone, spironolactone] | inhibited | inhibited | inhibited |  |  | Selectivity among ERBB receptors (ERBB4 [4]; split TEV recruitment assays, SH2(GRB2) adapter): some selectivity for ERBB4 over EGFR; Selectivity among ERBB receptors (ERBB4 [6]): selectivity for ERBB4 over EGFR |
| COc1cc2c(Oc3ccc(NC(=O)C4(C(=O)Nc5ccc(F)cc5)CC4)cc3F)ccnc2cc1OCCCN1CCOCC1 [foretinib] |  |  |  | 30 |  |  |
| C[C@]1(O)C[C@@H](c2nc(-c3ccc4ccc(-c5ccccc5)nc4c3)c3c(N)nccn32)C1 [linsitinib] |  |  |  | 30 | efficiently inhibited |  |
